The text below walks through data of ChEMBL document CHEMBL1201862, “PubChem BioAssay data set” (2004).

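48-hour exposure; five concentrations; linearly interpolated endpoints. At the GI50, growth is halved.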 The source made the active and inactive calls. Cut-off read from the data, not from the text of the source: active = GI50 up to about 1.1 µM and inactive = higher.

Common to all, as to test: NCI-60 cell line screen, 48 h
Assay [1] has as its system ACHN.
Assay [2] deals with EKVX.
The test system of assay [3] is IGROV-1.
In assay [4] the test system is K562.
Assay [5] deals with MCF7.
The test system of assay [6] is MDA-MB-435.
Assay [7] deals with MDA-N.
For assay [8], the system named is NCI-H23.
For assay [9], the system named is NCI/ADR-RES.
For assay [10], the system named is PC-3.
Assay [11] concerns RPMI-8226.
For assay [12], the system named is SK-MEL-2.
In assay [13] the test system is SK-MEL-5.
Assay [14] relates to SR.
In assay [15] the test system is UACC-257.
For assay [16], the system named is CAKI-1.
Assay [17] relates to SK-OV-3.
In assay [18] the test system is A498.
The subject of assay [19] is NCI-H226.

For the molecule `CC(=O)CCC(=O)C(=[N+]=[N-])S(=O)(=O)c1ccccc1`, the GI50 in assay [1], in assay [2], in assay [3], in assay [4], in assay [5] and in [6] was > 100 µM (inactive) in each case. In addition, the GI50 in [7], in assay [8], in assay [9], in assay [10], in assay [11] and in assay [12] was > 100 µM (inactive) each time. In addition, the GI50 in assay [13], in assay [14] and in assay [15] was > 100 µM (inactive) in each case.

Regarding `O=c1c(/C=C/c2c(O)ccc3ccccc23)nnc2sc(-c3cccc([N+](=O)[O-])c3)nn12`, the GI50 in [1] was 5.12 µM (inactive); in assay [16], 19.1 µM (inactive); in [2], 18.7 µM (inactive); in assay [3], 15.3 µM (inactive); in assay [4] it was 25.6 µM (inactive); in [6] it was 17.1 µM (inactive). The GI50 in [7] was 28.7 µM (inactive); in assay [8], 19.1 µM (inactive); in assay [9], 12.3 µM (inactive); in assay [10] it was 10.1 µM (inactive); in [11] it was 14.6 µM (inactive); in [12], 5.57 µM (inactive). The GI50 in assay [17] was 30 µM (inactive); in assay [14] it was 4.38 µM (inactive); in assay [15], 13.2 µM (inactive).

Turning to `CCSC1=N/C(=C\c2ccco2)C(=O)N1`, the GI50 was > 100 µM (inactive) in [18]; > 100 µM (inactive) in assay [1]; > 100 µM (inactive) in assay [2]; 74.8 µM (inactive) in assay [3]; > 100 µM (inactive) in assay [4]; 6.59 µM (inactive) in [5]. Besides, the GI50 in assay [6], in [7], in assay [19], in [8], in assay [9] and in assay [10] was > 100 µM (inactive) throughout. Moreover, the GI50 in assay [11], in assay [12], in assay [13], in assay [17] and in assay [14] was > 100 µM (inactive) in each case.

As for `O=C1CC(c2cccc([N+](=O)[O-])c2)C2(C(=O)NC(=O)NC2=O)C(c2cccc([N+](=O)[O-])c2)C1` (stereo not drawn), the GI50 in assay [18] was > 100 µM (inactive); in [1], > 100 µM (inactive); in [3], 60.7 µM (inactive); in assay [4], 67.6 µM (inactive); in assay [5] it was 17.3 µM (inactive); in [6], > 100 µM (inactive). For the same molecule, the GI50 in assay [7] is > 100 µM (inactive); in [19] it was 58.2 µM (inactive); in assay [8], > 100 µM (inactive); in assay [9], > 100 µM (inactive); in assay [10] it was 69.7 µM (inactive); in [11] it was 31.5 µM (inactive). The GI50 in assay [12] is > 100 µM (inactive); in assay [13] it was > 100 µM (inactive); in assay [17] it was > 100 µM (inactive); in assay [14] it was 55.6 µM (inactive); in assay [15], > 100 µM (inactive).

With `COc1ccc2nc3ccccc3c(NCCN(C)CCCl)c2c1`, the GI50 is 0.984 µM (active) in assay [18]; 0.24 µM (active) in assay [1]; 0.205 µM (active) in assay [16]; 1.51 µM (inactive) in assay [2]; 0.469 µM (active) in assay [3]; 0.337 µM (active) in assay [4]. Moreover, the GI50 in assay [5] is 0.587 µM (active); in assay [6] it was 0.364 µM (active); in assay [7], 0.344 µM (active); in [19] it was 0.608 µM (active); in assay [8], 0.604 µM (active); in assay [9] it was 0.647 µM (active). The GI50 in assay [10] is 0.205 µM (active); in [11] it was 0.247 µM (active); in [12], 0.847 µM (active); in assay [13] it was 0.644 µM (active); in [17], 0.861 µM (active); in assay [14] it was 0.0303 µM (active). The GI50 in assay [15] is 1.64 µM (inactive).
